Here are results for ten compounds from ChEMBL document CHEMBL5230122, “Natural products and other inhibitors of F1FO ATP synthase” (Eur J Med Chem, 2020).

Series [1] deals with HL-60. Briefly: Anticancer activity against human HL-60 cells assessed as reduction in cell viability incubated for 72 hrs by CCK-8 assay. The series is classed as functional, cell-based. The note with it: HL-60, 72 h.
The next series concerns MCF7. Briefly: Anticancer activity against human MCF7 cells assessed as reduction in cell viability incubated for 72 hrs by CCK-8 assay. The series is classed as functional, cell-based. The note with it: MCF7, 72 h. For orientation: Tetrazolium assays rely on reduction of a dye to a coloured formazan, in cell work by metabolically active cells.
Another series relates to NCI-H1299. Description: Anticancer activity against human NCI-H1299 cells assessed as reduction in cell viability incubated for 72 hrs by CCK-8 assay. The series is classed as functional, cell-based. The note with it: NCI-H1299, 72 h.
The subject of another series is LoVo. Description: Anticancer activity against human LoVo cells assessed as reduction in cell viability incubated for 72 hrs by CCK-8 assay. The format is functional, cell-based.
The test system of series [2] is K562. Briefly: Antiproliferative activity against human K562 cells assessed as reduction in cell viability incubated for 72 hrs by MTT assay. To be noted: K562, 72 h. The format is functional, cell-based.
Series [3] concerns HCT-116. Briefly: Antiproliferative activity against human HCT-116 cells assessed as reduction in cell viability incubated for 72 hrs by MTT assay. The series is classed as functional, cell-based. The note with it: HCT-116, 72 h.
Series [4] relates to K562. Briefly: Antitumor activity against human K562 cells assessed as reduction in cell viability incubated for 72 hrs by MTT assay. The note with it: K562, 72 h. The series is classed as functional, cell-based.
For series [5], the system named is HCT-116. Briefly: Antitumor activity against human HCT-116 cells assessed as reduction in cell viability incubated for 72 hrs by MTT assay. The format is functional, cell-based. To be noted: HCT-116, 72 h.
Series [6] can be described thus: Antiproliferative activity against human U87G cells assessed as reduction in cell viability incubated for 72 hrs by MTT assay. The series is classed as functional, cell-based.
Another series has as its system NCI-H460. Description: Antiproliferative activity against human NCI-H460 cells assessed as reduction in cell viability incubated for 48 hrs by MTT assay. The format is functional, cell-based. To be noted: NCI-H460, 48 h.
For a further series, the system named is N2a. Briefly: Antiproliferative activity against mouse Neuro2a cells assessed as reduction in cell viability incubated for 48 hrs by MTT assay. The format is functional, cell-based.
In series [7] the test system is HL-60. Briefly: Anticancer activity against human HL-60 cells assessed inhibition of cell proliferation incubated for 48 hrs by MTT assay. To be noted: HL-60, 48 h. The series is classed as functional, cell-based.
Series [8] in a line: Inhibition of mouse liver mitochondrial ATP synthase by microplate immuno-capture ELISA assay. The series is classed as mitochondria, Mitochondria.
Series [9] can be described thus: Inhibition of bovine heart mitochondrial F0F1-ATP synthase F0 domain assessed as reduction in rate of NADH oxidation for 30 mins by colorimetric assay. The format is mitochondria, Bos taurus, Mitochondria.
Series [10] deals with DU-145. Briefly: Antiproliferative activity against human DU-145 cells assessed as reduction in cell viability incubated for 3 days by rhodanile-blue dye based microplate reader analysis. The series is classed as functional. To be noted: DU-145, 72 h.
Series [11] deals with DU-145. Description: Antiproliferative activity against human DU-145 cells assessed as reduction in cell viability preincubated with PrSCs cells for 2 days followed by co-culture with DU-145 for 3 days by rhodanile-blue dye based microplate reader analysis. The series is classed as functional.
Series [12] in a line: Acute toxicity in mouse assessed as maximum tolerated dose. To be noted: in vivo.
The nature of series [13]: Inhibition of bovine heart mitochondrial F0F1-ATP synthase assessed as rate of NADH oxidation in presence of NADH for 30 mins by colorimetric assay. The format is mitochondria, Bos taurus, Mitochondria.
The subject of another series is HeLa. Briefly: Cytotoxicity against human HeLa cells assessed as reduction in cell viability. The series is classed as functional, cell-based.
Series [14] concerns HL-60. Description: Cytotoxicity against human HL-60 cells assessed as reduction in cell viability. The format is functional, cell-based.

Values after ≈ are worked out from the molar mass of the structure shown. Numbered stars: 1 amine (or outer) side, 2 acyl side, 3 side chain; on linkers, the order of the positions; unused ones are H or OH. Square brackets hold non-standard residues; d marks the D form. Peptide text beside a SMILES is read from it. * marks the point of attachment. X2 = CCC(=O)C[C@H](O)C[C@@H](C)C[C@H](N[*:1])C(=O)[*:2]; Leu(3R-OH) = CC(C)[C@@H](O)[C@H](N)C(=O)O; NH((S)CH(Me)CH2NMe2) = C[C@@H](CN(C)C)N*; Pro(4S-Me) = C[C@@H]1CN[C@H](C(=O)O)C1; X1 = CC[C@@H](C)/C=C/C(=O)*; Aib = CC(C)(N)C(=O)O; βAla = NCCC(=O)O

As usually defined, the IC50 is the midpoint of a concentration-inhibition curve. Regarding `CC[C@H](C)[C@H](NC(=S)[C@H](C)NC(=O)[C@H](C)NC(=S)[C@H](CCSC)NC(=S)[C@@H](NC(=O)C(C)=O)C(C)C)C(=S)N[C@@H](C)C(=O)N[C@H]1C(=O)N[C@@H](C(C)C)C(=O)N[C@@H](C)C(=O)N[C@@H](Cc2ccc(OC)cc2)C(=O)N[C@@H](C(O)c2cn(C)c[n+]2C)C(=O)N/C=C\SC1C` (stereo partly drawn), the IC50 with HL-60 [1] amounted to 610 nM; in the series with MCF7 it was 4.98 µM; with NCI-H1299, 5.08 µM; in the series on LoVo it was 1830 nM.

As for `CC[C@H]1/C=C/C=C/C[C@@H](C)[C@H](O)[C@@](C)(O)C(=O)[C@@H](C)[C@H](O)[C@@H](C)C(=O)[C@@H](C)[C@H](O)[C@@H](C)/C=C/C(=O)O[C@@H]2[C@H](C)[C@H](CC1)O[C@]1(CC[C@H](C)[C@H](C[C@@H](C)O)O1)[C@H]2C` [OLIGOMYCIN], the IC50 stood at 200 nM with K562 [2], 900 nM in the series with HCT-116 [3], 200 nM with K562 [4] and 1000 nM in the series with HCT-116 [5].

On to `CO[C@H]1[C@H](O[C@@H]2C[C@@H]3C[C@H](O)[C@]4(O)C(=O)O[C@@H](C[C@H](O)[C@@H]5C[C@H](C)[C@H](/C=C\C=C\[C@H](C)C[C@H](C2)O3)O5)[C@H]4O)O[C@@H](C)[C@H](OCCCC=O)[C@H]1OCCCC=O`, for which the IC50 (with HCT-116 [3]; in series [6]) was more than 3000 nM in each case.

Take `CCC(=O)[C@@H](C)[C@H](OC(C)=O)[C@@H](C)/C=C/C(=O)O[C@@H]1[C@H](C)[C@H](CC[C@H](/C=C/C=C/C[C@@H](C)[C@H](OC(C)=O)[C@@]2(C)OC=C(C)C2=O)CC)O[C@]2(CC[C@H](C)[C@H](C[C@@H](C)OC(C)=O)O2)[C@H]1C`: the figures for the half-maximal inhibitory concentration (IC50) with K562 [4] and in the series on HCT-116 [5] were 900 nM and 3100 nM, respectively.

On to `CO[C@H]1[C@H](O[C@@H]2C[C@@H]3C/C=C/C(=O)O[C@H](CO)C[C@H](O)[C@@H]4C[C@H](C)[C@H](/C=C\C=C\[C@H](C)C[C@H](C2)O3)O4)O[C@@H](C)[C@H](O)[C@H]1O`, for which the figures for the IC50 with NCI-H460 and with N2a were 12 nM and 44 nM, respectively.

As for `c1csc(-c2c3ccc(=[N+]4CCCCC4)cc-3oc3cc(N4CCCCC4)ccc23)c1`, the results for the IC50 (with HL-60 [7]; in series [8]) were 100 nM and 3 µM, respectively.

As for `CO[C@H]1[C@H](O[C@@H]2C[C@@H]3C[C@H](OCCCC=O)[C@@]4(O)C[C@H](C[C@H](O)[C@@H]5C[C@H](C)[C@H](/C=C\C=C\[C@H](C)C[C@H](C2)O3)O5)OC4=O)O[C@@H](C)[C@H](O)[C@H]1O`, the figures for the IC50 (with HCT-116 [3]; in the series on N2a; in series [6]) were 54 nM, 84 nM and 61 nM, respectively.

A word on the MTD: it is the highest dose tested that stayed within the study's limit of toxicity. For the compound `CCC(=O)C[C@H](O)C[C@@H](C)C[C@H](NC(=O)[C@@H]1C[C@H](C)CN1C(=O)/C=C/[C@H](C)CC)C(=O)N[C@H](C(=O)NC(C)(C)C(=O)N[C@@H](CC(C)C)C(=O)N[C@@H](CC(C)C)C(=O)NC(C)(C)C(=O)NC(C)(C)C(=O)NCCC(=O)N[C@@H](C)CN(C)C)[C@H](O)C(C)C` (X1-[Pro(4S-Me)][X2][Leu(3R-OH)][Aib]LL[Aib][Aib][βAla]-{NH((S)CH(Me)CH2NMe2)}), the concentration for half-maximal inhibition (IC50) is 2.8 µg/mL (≈ 2.3 µM) in series [9], more than 1 µg/mL with DU-145 [10] and 0.045 µg/mL (≈ 0.0369 µM) with DU-145 [11]. For the same compound, the MTD in series [12] worked out at 2.5 mg/kg.

With `CC[C@@H](O)C[C@@H]1O[C@@]2(CC[C@@H]1C)C[C@H]1C[C@H](CC[C@@H](CC)/C=C/C=C/CCC[C@@](C)(O)[C@H](O)C[C@H](O)C[C@@H](O)[C@@H](C)[C@H](O)[C@@H](CC)/C=C/C(=O)O1)O2`, the 50% inhibitory concentration (IC50) was 1000 nM in series [13], 8.2 µM with HeLa and 5.8 µM in the series with HL-60 [14].

Take `Ic1ccc(-c2c3ccc(=[N+]4CCCCC4)cc-3oc3cc(N4CCCCC4)ccc23)cc1`: the IC50 in the series on HL-60 [7] was 100 nM; in series [8], 3.9 µM.
